This note sets out measurements from patent US20240208992A1, “MACROCYCLES AS CFTR MODULATORS” (Idorsia Pharmaceuticals Ltd, priority 2021, published 2024).

The assay deals with human F508del-CFTR (Homo sapiens, UniProt P13569, DEL508-508). Put plainly: F508del-CFTR cell surface expression (corrector activity), DiscoveRx ß-galactosidase complementation chemiluminescence assay in recombinant U2OS cell line.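 On all read-outs here: U2OS cells co-expressing ProLink-tagged F508del-CFTR and a membrane-anchored enzyme acceptor, where more surface CFTR restores β-galactosidase activity measured by chemiluminescence.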 Particulars: U2OS cell line, 16h compound incubation; for EC50: EC50, F508del-CFTR cell surface expression, geomean values; for Emax: U2OS, in relation to the Emax of the corrector lumacaftor (=100%), arithmetic mean values.
Sequence of human F508del-CFTR (P13569 with tags, fused parts or gaps DEL508-508): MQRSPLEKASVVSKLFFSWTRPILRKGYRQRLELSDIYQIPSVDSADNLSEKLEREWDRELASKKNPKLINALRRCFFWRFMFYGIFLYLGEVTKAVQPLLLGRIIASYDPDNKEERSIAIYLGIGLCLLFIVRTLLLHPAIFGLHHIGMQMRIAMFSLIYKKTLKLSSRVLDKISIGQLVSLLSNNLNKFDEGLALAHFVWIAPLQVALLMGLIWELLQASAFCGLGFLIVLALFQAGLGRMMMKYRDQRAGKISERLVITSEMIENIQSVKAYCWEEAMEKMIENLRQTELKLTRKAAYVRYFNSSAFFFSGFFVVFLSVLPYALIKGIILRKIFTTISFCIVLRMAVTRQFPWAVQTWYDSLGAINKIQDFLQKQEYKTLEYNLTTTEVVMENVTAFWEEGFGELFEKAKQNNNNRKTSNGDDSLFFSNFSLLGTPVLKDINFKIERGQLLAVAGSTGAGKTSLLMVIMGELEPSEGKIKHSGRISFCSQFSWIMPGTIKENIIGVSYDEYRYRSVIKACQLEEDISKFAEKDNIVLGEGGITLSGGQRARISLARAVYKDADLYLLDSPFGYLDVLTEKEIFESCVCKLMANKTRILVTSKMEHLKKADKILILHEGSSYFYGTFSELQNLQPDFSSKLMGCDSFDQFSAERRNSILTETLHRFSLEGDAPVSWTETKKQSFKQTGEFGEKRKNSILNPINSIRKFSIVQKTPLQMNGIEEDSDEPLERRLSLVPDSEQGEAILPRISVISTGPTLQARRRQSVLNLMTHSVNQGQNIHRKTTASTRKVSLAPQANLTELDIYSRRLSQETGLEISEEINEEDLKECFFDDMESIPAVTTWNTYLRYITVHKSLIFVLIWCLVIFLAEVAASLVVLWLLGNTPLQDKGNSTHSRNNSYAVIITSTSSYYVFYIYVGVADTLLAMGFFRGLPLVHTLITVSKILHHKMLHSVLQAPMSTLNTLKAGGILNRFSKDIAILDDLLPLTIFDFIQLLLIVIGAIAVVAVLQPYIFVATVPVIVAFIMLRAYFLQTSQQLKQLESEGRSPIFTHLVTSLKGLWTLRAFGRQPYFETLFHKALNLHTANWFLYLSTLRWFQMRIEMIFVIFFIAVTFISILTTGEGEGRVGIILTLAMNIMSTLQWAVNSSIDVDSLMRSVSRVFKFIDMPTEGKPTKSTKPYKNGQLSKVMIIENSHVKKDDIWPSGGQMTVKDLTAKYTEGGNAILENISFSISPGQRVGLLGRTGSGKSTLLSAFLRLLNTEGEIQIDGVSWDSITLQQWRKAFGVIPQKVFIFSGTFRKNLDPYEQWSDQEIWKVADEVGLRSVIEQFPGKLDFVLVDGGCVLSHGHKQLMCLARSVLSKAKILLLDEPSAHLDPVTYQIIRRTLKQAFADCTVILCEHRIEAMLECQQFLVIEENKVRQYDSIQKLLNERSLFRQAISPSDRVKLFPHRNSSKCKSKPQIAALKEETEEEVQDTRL

Molecules are shown by their SMILES.

Broadly, the EC50 is the midpoint of the concentration-response curve. The term Emax denotes the maximal effect, on the per cent scale that the assay sets. On to `[2H]C1([2H])Oc2ccc3c(c2O1)C(=O)N[C@H](C(=O)NCCc1cccc(OC)c1)CC(=O)N(C)[C@@H](CC(C)C)C(=O)N(C)CC(=O)N[C@H](Cc1ccccc1)CO3` [Example 324, (8R,14S,18S)-8-benzyl-14-isobutyl-N-(3-methoxyphenethyl)-12,15-dimethyl-10,13,16,20-tetraoxo-7,8,9,10,11,12,13,14,15,16,17,18,19,20-tetradecahydro-[1,3]dioxolo[4′,5′:5,6]benzo[1,2-p][1]oxa[4,7,10,14]tetraazacycloheptadecine-2,2-d2-18-carboxamide], for which the EC50 came to 666 nM and the Emax was 247%.

For `COc1cc(CCNC(=O)[C@@H]2CC(=O)N(C)[C@@H](CC(C)C)C(=O)N3CCOC[C@@H]3C(=O)N[C@H](Cc3ccccc3)COc3ccc4ccccc4c3C(=O)N2)cc(OC)c1` [Example 325, (4aR,7R,18S,22S)-7-benzyl-N-(3,5-dimethoxyphenethyl)-22-isobutyl-21-methyl-5,16,20,23-tetraoxo-1,2,4,4a,5,6,7,8,16,17,18,19,20,21,22,23-hexadecahydronaphtho[1,2-p][1,4]oxazino[3,4-f][1]oxa[4,7,10,14]tetraazacycloheptadecine-18-carboxamide], the EC50 was 187 nM and the Emax worked out at 237%.

`CC(C)C[C@H]1C(=O)N2CCOC[C@@H]2C(=O)N[C@H](Cc2ccccc2)COc2ccc3ccccc3c2C(=O)N[C@H](C(=O)NCCc2ccc3c(c2)OCO3)CC(=O)N1C` [Example 326, (4aR,7R,18S,22S)-N-(2-(benzo[d][1,3]dioxol-5-yl)ethyl)-7-benzyl-22-isobutyl-21-methyl-5,16,20,23-tetraoxo-1,2,4,4a,5,6,7,8,16,17,18,19,20,21,22,23-hexadecahydronaphtho[1,2-p][1,4]oxazino[3,4-f][1]oxa[4,7,10,14]tetraazacycloheptadecine-18-carboxamide]: the concentration giving a half-maximal response (EC50) is 276 nM and the Emax was 273%.

In the case of `CC(C)C[C@H]1C(=O)N2CCOC[C@@H]2C(=O)N[C@H](Cc2ccccc2)COc2ccc3ccccc3c2C(=O)N[C@H](C(=O)NCCc2nc3ccccc3o2)CC(=O)N1C` [Example 327, (4aR,7R,18S,22S)-N-(2-(benzo[d]oxazol-2-yl)ethyl)-7-benzyl-22-isobutyl-21-methyl-5,16,20,23-tetraoxo-1,2,4,4a,5,6,7,8,16,17,18,19,20,21,22,23-hexadecahydronaphtho[1,2-p][1,4]oxazino[3,4-f][1]oxa[4,7,10,14]tetraazacycloheptadecine-18-carboxamide], the EC50 turned out to be 461 nM and the Emax was 225%.

Turning to `COc1cc(CCNC(=O)[C@@H]2CC(=O)N(C)[C@@H](CC(C)C)C(=O)N3CCCC[C@@H]3C(=O)N[C@H](Cc3ccccc3)COc3ccc4ncn(C)c4c3C(=O)N2)cc(OC)c1` [Example 328, (8S,12S,18aR,21R)-21-benzyl-N-(3,5-dimethoxyphenethyl)-12-isobutyl-5,11-dimethyl-6,10,13,19-tetraoxo-6,7,8,9,10,11,12,13,16,17,18,18a,19,20,21,22-hexadecahydro-5H,15H-imidazo[4′,5′:5,6]benzo[1,2-p]pyrido[2,1-f][1]oxa[4,7,10,14]tetraazacycloheptadecine-8-carboxamide], the EC50 worked out at 987 nM and the Emax was 228%.

`CC(C)C[C@H]1C(=O)N2CCCC[C@@H]2C(=O)N[C@H](Cc2ccccc2)COc2ccc3ncn(C)c3c2C(=O)N[C@H](C(=O)NCCc2ccc3c(c2)OCO3)CC(=O)N1C` [Example 329, (8S,12S,18aR,21R)-N-(2-(benzo[d][1,3]dioxol-5-yl)ethyl)-21-benzyl-12-isobutyl-5,11-dimethyl-6,10,13,19-tetraoxo-6,7,8,9,10,11,12,13,16,17,18,18a,19,20,21,22-hexadecahydro-5H,15H-imidazo[4′,5′:5,6]benzo[1,2-p]pyrido[2,1-f][1]oxa[4,7,10,14]tetraazacycloheptadecine-8-carboxamide]: the EC50 was determined as 796 nM and the Emax was 198%.

Turning to `CC(C)C[C@H]1C(=O)N(CCC2CC3CCC2O3)CC(=O)N[C@H](Cc2ccccc2)COc2ccc3ccccc3c2C(=O)N[C@H](C(=O)NCCc2ccc3c(c2)OCO3)CC(=O)N1C` (stereo partly drawn) [Example 330, (3S,7S,13R)-9-(2-(7-oxabicyclo[2.2.1]heptan-2-yl)ethyl)-N-(2-(benzo[d][1,3]dioxol-5-yl)ethyl)-13-benzyl-7-isobutyl-6-methyl-1,5,8,11-tetraoxo-1,2,3,4,5,6,7,8,9,10,11,12,13,14-tetradecahydronaphtho[1,2-p][1]oxa[4,7,10,14]tetraazacycloheptadecine-3-carboxamide], the concentration giving a half-maximal response (EC50) stood at 418 nM and the Emax was 138%.

Regarding `CC(C)C[C@H]1C(=O)N(CCC2CCC3(CCC3)O2)CC(=O)N[C@H](Cc2ccccc2)COc2ccc3ccccc3c2C(=O)N[C@H](C(=O)NCCc2ccc3c(c2)OCO3)CC(=O)N1C` (stereo partly drawn) [Example 331, (3S,7S,13R)-9-(2-(5-oxaspiro[3.4]octan-6-yl)ethyl)-N-(2-(benzo[d][1,3]dioxol-5-yl)ethyl)-13-benzyl-7-isobutyl-6-methyl-1,5,8,11-tetraoxo-1,2,3,4,5,6,7,8,9,10,11,12,13,14-tetradecahydronaphtho[1,2-p][1]oxa[4,7,10,14]tetraazacycloheptadecine-3-carboxamide], the EC50 amounted to 121 nM and the Emax was 240%.

On to `CC(C)C[C@H]1C(=O)N(CCC2CCCO2)CC(=O)N[C@H](Cc2ccccc2)COc2ccc3ccccc3c2C(=O)N[C@H](C(=O)NCCc2ccc3c(c2)OCO3)CC(=O)N1C` (stereo partly drawn) [Example 332, (3S,7S,13R)-N-(2-(benzo[d][1,3]dioxol-5-yl)ethyl)-13-benzyl-7-isobutyl-6-methyl-1,5,8,11-tetraoxo-9-(2-(tetrahydrofuran-2-yl)ethyl)-1,2,3,4,5,6,7,8,9,10,11,12,13,14-tetradecahydronaphtho[1,2-p][1]oxa[4,7,10,14]tetraazacycloheptadecine-3-carboxamide], for which the EC50 worked out at 309 nM and the Emax came to 183%.

Regarding `CC(C)C[C@H]1C(=O)N(CCC2CCCOC2)CC(=O)N[C@H](Cc2ccccc2)COc2ccc3ccccc3c2C(=O)N[C@H](C(=O)NCCc2ccc3c(c2)OCO3)CC(=O)N1C` (stereo partly drawn) [Example 333, (3S,7S,13R)-N-(2-(benzo[d][1,3]dioxol-5-yl)ethyl)-13-benzyl-7-isobutyl-6-methyl-1,5,8,11-tetraoxo-9-(2-(tetrahydro-2H-pyran-3-yl)ethyl)-1,2,3,4,5,6,7,8,9,10,11,12,13,14-tetradecahydronaphtho[1,2-p][1]oxa[4,7,10,14]tetraazacycloheptadecine-3-carboxamide], the EC50 was 345 nM and the Emax stood at 182%.

For the compound `CC(C)C[C@H]1C(=O)N(CCC2CCC3(CCOCC3)CO2)CC(=O)N[C@H](Cc2ccccc2)COc2ccc3ccccc3c2C(=O)N[C@H](C(=O)NCCc2ccc3c(c2)OCO3)CC(=O)N1C` (stereo partly drawn) [Example 334, (3S,7S,13R)-9-(2-(2,9-dioxaspiro[5.5]undecan-3-yl)ethyl)-N-(2-(benzo[d][1,3]dioxol-5-yl)ethyl)-13-benzyl-7-isobutyl-6-methyl-1,5,8,11-tetraoxo-1,2,3,4,5,6,7,8,9,10,11,12,13,14-tetradecahydronaphtho[1,2-p][1]oxa[4,7,10,14]tetraazacycloheptadecine-3-carboxamide], the EC50 was 323 nM and the Emax amounted to 232%.

On to `CC(C)C[C@H]1C(=O)N(CCOC(C)(C)C)CC(=O)N[C@H](Cc2ccccc2)COc2ccc3ccccc3c2C(=O)N[C@H](C(=O)NCCc2ccc3c(c2)OCO3)CC(=O)N1C` [Example 335, (3S,7S,13R)-N-(2-(benzo[d][1,3]dioxol-5-yl)ethyl)-13-benzyl-9-(2-(tert-butoxy)ethyl)-7-isobutyl-6-methyl-1,5,8,11-tetraoxo-1,2,3,4,5,6,7,8,9,10,11,12,13,14-tetradecahydronaphtho[1,2-p][1]oxa[4,7,10,14]tetraazacycloheptadecine-3-carboxamide], for which the EC50 was 270 nM and the Emax stood at 262%.

With `COC1CC(CCN2CC(=O)N[C@H](Cc3ccccc3)COc3ccc4ccccc4c3C(=O)N[C@H](C(=O)NCCc3ccc4c(c3)OCO4)CC(=O)N(C)[C@@H](CC(C)C)C2=O)C1` (stereo partly drawn) [Example 336, (3S,7S,13R)-N-(2-(benzo[d][1,3]dioxol-5-yl)ethyl)-13-benzyl-7-isobutyl-9-(2-(3-methoxycyclobutyl)ethyl)-6-methyl-1,5,8,11-tetraoxo-1,2,3,4,5,6,7,8,9,10,11,12,13,14-tetradecahydronaphtho[1,2-p][1]oxa[4,7,10,14]tetraazacycloheptadecine-3-carboxamide], the EC50 stood at 207 nM and the Emax was found to be 212%.

For `CN1C(=O)C[C@@H](C(=O)NCCc2ccc3c(c2)OCO3)NC(=O)c2c(ccc3ccccc23)OC[C@@H](Cc2ccccc2)NC(=O)CN(C[C@@H]2CCCCO2)C(=O)[C@@H]1CC1CCC1` [Example 337, (3S,7S,13R)-N-(2-(benzo[d][1,3]dioxol-5-yl)ethyl)-13-benzyl-7-(cyclobutylmethyl)-6-methyl-1,5,8,11-tetraoxo-9-(((S)-tetrahydro-2H-pyran-2-yl)methyl)-1,2,3,4,5,6,7,8,9,10,11,12,13,14-tetradecahydronaphtho[1,2-p][1]oxa[4,7,10,14]tetraazacycloheptadecine-3-carboxamide], the EC50 came to 452 nM and the Emax stood at 116%.

`CN1C(=O)C[C@@H](C(=O)NCCc2ccc3c(c2)OCO3)NC(=O)c2c(ccc3ccccc23)OC[C@@H](Cc2ccccc2)NC(=O)CN(C[C@H]2CCCCO2)C(=O)[C@@H]1CC1CCC1` [Example 338, (3S,7S,13R)-N-(2-(benzo[d][1,3]dioxol-5-yl)ethyl)-13-benzyl-7-(cyclobutylmethyl)-6-methyl-1,5,8,11-tetraoxo-9-(((R)-tetrahydro-2H-pyran-2-yl)methyl)-1,2,3,4,5,6,7,8,9,10,11,12,13,14-tetradecahydronaphtho[1,2-p][1]oxa[4,7,10,14]tetraazacycloheptadecine-3-carboxamide]: the EC50 was 292 nM and the Emax turned out to be 173%.
